Measured values published in publication PMC5839718 (The Journal of General Physiology, 2018).
Read-outs that look alike come from different tables or passages of the source.

Legend:
[1] = molecular target: α4β2 nAChR from β-3a-α alone (Homo sapiens, UniProt P17787+P43681); assay: two-electrode voltage-clamp, oocytes, β-3a-α alone; assay type: cell-based
[2] = molecular target: (α4)3(β2)2 nAChR from α4 and β2 (10:1) (Homo sapiens, UniProt P17787+P43681); assay: two-electrode voltage-clamp, X. laevis oocytes, α4 and β2 cRNA 10:1; assay type: cell-based
[3] = molecular target: α4β2 nAChR from β-6-α and α4^VFL (1:25) (Homo sapiens, UniProt P17787+P43681, H142V/Q150F/T152L); assay: two-electrode voltage-clamp, oocytes, β-6-α and α4^VFL 1:25; assay type: cell-based; conditions: β-6-α + α4^VFL 1:25; biphasic fit
[4] = molecular target: α4β2 nAChR from β-6-α-9-β-6-α and α4 (1:1) (Homo sapiens, UniProt P17787+P43681); assay: two-electrode voltage-clamp, oocytes, β-6-α-9-β-6-α and α4; assay type: cell-based; conditions: β-6-α-9-β-6-α + α4
[5] = molecular target: α4β2 nAChR from β-6a-α and α4 (1:1) (Homo sapiens, UniProt P17787+P43681); assay: two-electrode voltage-clamp, oocytes, β-6a-α and α4; assay type: cell-based; conditions: β-6a-α + α4; biphasic fit
[6] = molecular target: α4β2 nAChR from β-6a-α alone (Homo sapiens, UniProt P17787+P43681); assay: two-electrode voltage-clamp, oocytes, β-6a-α alone; assay type: cell-based
[7] = molecular target: α4β2 nAChR from β-6-α-9-β-6-α and α4^VFL (1:25) (Homo sapiens, UniProt P17787+P43681, H142V/Q150F/T152L); assay: two-electrode voltage-clamp, oocytes, β-6-α-9-β-6-α and α4^VFL 1:25; assay type: cell-based; conditions: β-6-α-9-β-6-α + α4^VFL 1:25; biphasic fit
[8] = molecular target: α4β2 nAChR from β-0a-α and α4 (1:1) (Homo sapiens, UniProt P17787+P43681); assay: two-electrode voltage-clamp, oocytes, β-0a-α and α4; assay type: cell-based; conditions: β-0a-α + α4; biphasic fit
[9] = molecular target: α4β2 nAChR from β-3a-α and α4 (1:1) (Homo sapiens, UniProt P17787+P43681); assay: two-electrode voltage-clamp, oocytes, β-3a-α and α4; assay type: cell-based; conditions: β-3a-α + α4; biphasic fit
[10] = molecular target: α4β2 nAChR from β-9a-α and α4^VFL (1:1) (Homo sapiens, UniProt P17787+P43681, H142V/Q150F/T152L); assay: two-electrode voltage-clamp, oocytes, β-9a-α and α4^VFL; assay type: cell-based
[11] = test system: (α4)2(β2)3 nAChR from α4 and β2 (1:4); conditions: 10 µM ACh, ref Timmermann et al. (2012); cited from earlier work
Ls-AChBP = conditions: read-out: NS9283 Ki at Ls-AChBP; ref Olsen et al., 2014; cited from earlier work

Chain of (α4)3(β2)2 nAChR from α4 and β2 (10:1) (P43681 27-627): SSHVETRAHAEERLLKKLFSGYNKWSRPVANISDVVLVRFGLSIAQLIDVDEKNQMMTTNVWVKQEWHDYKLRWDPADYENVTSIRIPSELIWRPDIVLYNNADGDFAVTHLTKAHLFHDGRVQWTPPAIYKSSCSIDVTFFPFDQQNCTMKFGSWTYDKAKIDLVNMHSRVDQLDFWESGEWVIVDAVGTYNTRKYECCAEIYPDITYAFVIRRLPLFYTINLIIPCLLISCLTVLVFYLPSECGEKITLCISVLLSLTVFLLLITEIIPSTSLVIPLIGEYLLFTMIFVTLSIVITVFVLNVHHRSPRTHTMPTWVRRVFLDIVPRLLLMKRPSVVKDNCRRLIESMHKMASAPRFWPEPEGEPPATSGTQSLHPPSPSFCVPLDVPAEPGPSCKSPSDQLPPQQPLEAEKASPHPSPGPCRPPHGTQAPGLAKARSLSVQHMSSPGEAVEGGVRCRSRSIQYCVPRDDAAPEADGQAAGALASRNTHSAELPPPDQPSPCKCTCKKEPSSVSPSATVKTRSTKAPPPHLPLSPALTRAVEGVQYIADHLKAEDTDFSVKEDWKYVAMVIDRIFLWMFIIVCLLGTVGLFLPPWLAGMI
Chain of (α4)3(β2)2 nAChR from α4 and β2 (10:1) (P17787 26-502): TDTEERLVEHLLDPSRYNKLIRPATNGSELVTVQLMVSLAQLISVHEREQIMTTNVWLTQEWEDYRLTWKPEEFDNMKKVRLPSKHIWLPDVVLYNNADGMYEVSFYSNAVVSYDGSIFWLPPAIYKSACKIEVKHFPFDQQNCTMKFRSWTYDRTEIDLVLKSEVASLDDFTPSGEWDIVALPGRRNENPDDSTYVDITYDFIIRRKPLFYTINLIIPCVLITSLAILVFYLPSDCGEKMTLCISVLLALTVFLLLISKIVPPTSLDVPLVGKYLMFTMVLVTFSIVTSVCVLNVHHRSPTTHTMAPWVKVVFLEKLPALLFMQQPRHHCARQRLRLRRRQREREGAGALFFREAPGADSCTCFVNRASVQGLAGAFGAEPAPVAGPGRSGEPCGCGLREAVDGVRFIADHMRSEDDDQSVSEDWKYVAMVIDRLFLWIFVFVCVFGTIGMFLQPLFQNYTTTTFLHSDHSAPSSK
Chain of α4β2 nAChR from β-9a-α and α4^VFL (1:1) (P17787 26-502): as above
Chain of α4β2 nAChR from β-9a-α and α4^VFL (1:1) (P43681 27-627, stated change not applied): as the sequence (P43681 27-627) above
Chain of α4β2 nAChR from β-9a-α and α4^VFL (1:1) (P43681 27-627 H142V/Q150F/T152L): as the sequence (P43681 27-627) above, with H116V, Q124F, T126L counted along it
Chain of α4β2 nAChR from β-6-α-9-β-6-α and α4^VFL (1:25) (P17787 26-502): as the sequence (P17787 26-502) above
Chain of α4β2 nAChR from β-6-α-9-β-6-α and α4^VFL (1:25) (P43681 27-627, stated change not applied): as the sequence (P43681 27-627) above
Chain of α4β2 nAChR from β-6-α-9-β-6-α and α4^VFL (1:25) (P17787 26-502): as the sequence (P17787 26-502) above
Chain of α4β2 nAChR from β-6-α-9-β-6-α and α4^VFL (1:25) (P43681 27-627, stated change not applied): as the sequence (P43681 27-627) above
Chain of α4β2 nAChR from β-6-α-9-β-6-α and α4^VFL (1:25) (P43681 34-627 H142V/Q150F/T152L limits assumed): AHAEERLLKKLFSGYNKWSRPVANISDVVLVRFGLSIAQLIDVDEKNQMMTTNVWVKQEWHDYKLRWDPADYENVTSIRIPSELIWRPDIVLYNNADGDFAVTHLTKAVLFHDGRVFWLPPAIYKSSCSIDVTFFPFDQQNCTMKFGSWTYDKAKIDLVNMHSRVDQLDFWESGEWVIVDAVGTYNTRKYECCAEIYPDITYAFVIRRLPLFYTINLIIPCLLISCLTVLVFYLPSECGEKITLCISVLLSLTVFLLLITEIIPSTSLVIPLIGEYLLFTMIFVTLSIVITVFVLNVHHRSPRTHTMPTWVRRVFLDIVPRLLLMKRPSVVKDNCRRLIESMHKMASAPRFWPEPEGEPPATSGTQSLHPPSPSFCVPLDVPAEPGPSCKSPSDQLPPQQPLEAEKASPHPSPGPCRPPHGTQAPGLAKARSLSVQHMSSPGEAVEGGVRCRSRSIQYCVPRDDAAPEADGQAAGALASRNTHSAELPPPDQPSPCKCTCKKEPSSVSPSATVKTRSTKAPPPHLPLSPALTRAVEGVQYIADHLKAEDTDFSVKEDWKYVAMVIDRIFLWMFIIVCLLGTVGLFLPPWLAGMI

CC(=O)OCC[N+](C)(C)C [ACh, acetylcholine]
Emax ([1]; read-out: ACh Emax): 103 ± 1% | ACh Frac (first component fraction) ([1]; β-3a-α alone, biphasic fit): 0.64 ± 0.11 | Emax ([2]; read-out: ACh Emax): 102 ± 1% | ACh Frac (first component fraction) ([2]; α4+β2 10:1, biphasic fit): 0.11 ± 0.03 | ACh Frac (first component fraction) [3]: 0.39 ± 0.05 | mean AChmax-evoked currents [4]: 1–2 μA | ACh Frac (first component fraction) ([4]; biphasic fit): 0.035 ± 0.020 | ACh Frac (first component fraction) [5]: 0.059 ± 0.018 | Emax ([6]; read-out: ACh Emax): 103 ± 2% | ACh Frac (first component fraction) ([6]; β-6a-α alone, biphasic fit): 0.70 ± 0.12 | ACh Frac (first component fraction) [7]: 0.40 ± 0.12 | ACh Frac (first component fraction) [8]: 0.053 ± 0.028 | ACh Frac (first component fraction) [9]: 0.11 ± 0.02 | ACh Frac (first component fraction) ([10]; β-9a-α + α4^VFL, biphasic fit): 0.32 ± 0.09

N#Cc1cccc(-c2nc(-c3cccnc3)no2)c1 [NS9283, 3-(3-(pyridine-3-yl)-1,2,4-oxadiazol-5-yl)benzonitrile]
EC50 [2]: 5.01 µM | Emax ([2]; read-out: NS9283 Emax): 860 ± 60% | NS9283 effect on AChcontrol-evoked current amplitudes at […] or higher [11]: inhibition | EC50 [6]: 3.98 µM | Emax ([6]; read-out: NS9283 Emax): 51 ± 7% | Ki (Ls-AChBP): 67 µM | EC50 ([10]; NS9283 pEC50, β-9a-α + α4^VFL, coapplied with 10 µM ACh): 10 µM | NS9283 E31.6 µM ([10]; β-9a-α + α4^VFL, […] NS9283 + 10 µM ACh, % change from AChcontrol current): 200 ± 10%
